In patent US10738028B2, “Spiro three-membered ring, spiro five-membered ring peptide deformylase inhibitor and use thereof in antibacteria and anti-tumor” (priority 2016, dated 2020):
Where two headings read alike, the source gives them in different places.

Legend:
Format in all cases: cell-based
[1] = tested on: HCT-116 colorectal cancer cell line; test: CCK-8 proliferation inhibition; settings: Homo sapiens, HCT-116, 72 h, concentration of 30 μM, 72 hours, CCK-8
Method in brief: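 Growth inhibition is read by CCK-8 (1:10 dilution) after 72 h of compound exposure. HCT-116 cells grow in McCoy's 5A containing 10% newborn bovine serum at 2000 cells/well, with 1‰ DMSO as vehicle control.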

[2] = tested on: Moraxella catarrhalis (BCA); test: MIC, two-fold agar dilution (CLSI), clinical isolates
Method in brief: (§1)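 Test samples were assayed by the CLSI-recommended two-fold agar dilution method, and the minimum inhibitory concentration against each tested strain was determined.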

[3] = tested on: Enterococcus faecalis (EFA); test: as above
Method in brief: as §1

[4] = tested on: methicillin-resistant Staphylococcus epidermidis (MRSE); test: as above
Method in brief: as §1

[5] = tested on: Enterococcus faecium (EFM); test: as above
Method in brief: as §1

[6] = tested on: methicillin-sensitive Staphylococcus epidermidis (MSSE); test: as above
Method in brief: as §1

[7] = tested on: Streptococcus pneoumoniae (SPN); test: as above
Method in brief: as §1

[8] = tested on: methicillin-resistant Staphylococcus aureus (MRSA); test: as above
Method in brief: as §1

[9] = tested on: Escherichia coli (including ESBLs, non-ESBLs); test: as above
Method in brief: as §1

[10] = tested on: methicillin-sensitive Staphylococcus aureus (MSSA); test: as above
Method in brief: as §1

[11] = tested on: A549 lung cancer cell line; test: CCK-8 proliferation inhibition; settings: Homo sapiens, A549, 72 h, concentration of 30 μM
Method in brief: (§2)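 Plating at 2000 cells/well, then incubation overnight at 37° C. Next, a range of compound concentrations for 72 hours (control 1‰ DMSO). Finally, medium decanted and CCK-8 diluted 1:10 added.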

[12] = tested on: MGC-803 gastric cancer cell line; test: CCK-8 proliferation inhibition; settings: Homo sapiens, MGC-803, 72 h, concentration of 30 μM
Method in brief: as §2

[13] = tested on: BEL-7402 liver cancer cell line; test: CCK-8 proliferation inhibition; settings: Homo sapiens, Bel-7402, 72 h, concentration of 30 μM
Method in brief: as §2

O=C(C[C@@H](CC1CCCC1)C(=O)N1CC2(CC2)C[C@H]1C(=O)Nc1ccc(N2CCOCC2)cc1)NO [Example 61]
1 µg/mL: Anti-bacterial activity (MIC), strain BCA 14-5 ([2]; clinical isolate BCA 14-5) | Anti-bacterial activity (MIC), strain BCA 14-6 ([2]; clinical isolate BCA 14-6) | Anti-bacterial activity (MIC), strain MRSE 15-1 ([4]; clinical isolate MRSE 15-1) | Anti-bacterial activity (MIC), strain MRSE 15-2 ([4]; clinical isolate MRSE 15-2) | Anti-bacterial activity (MIC), strain MRSE 15-3 ([4]; clinical isolate MRSE 15-3) | Anti-bacterial activity (MIC), strain MRSE 15-7 ([4]; clinical isolate MRSE 15-7) | Anti-bacterial activity (MIC), strain EFM 15-6 ([5]; clinical isolate EFM 15-6) | Anti-bacterial activity (MIC), strain MSSE 15-3 ([6]; clinical isolate MSSE 15-3) | Anti-bacterial activity (MIC), strain MSSE 15-4 ([6]; clinical isolate MSSE 15-4) | Anti-bacterial activity (MIC), strain MSSE 15-5 ([6]; clinical isolate MSSE 15-5) | Anti-bacterial activity (MIC), strain MRSA 15-1 ([8]; clinical isolate MRSA 15-1) | Anti-bacterial activity (MIC), strain MRSA 15-2 ([8]; clinical isolate MRSA 15-2) | Anti-bacterial activity (MIC), strain MRSA 15-3 ([8]; clinical isolate MRSA 15-3) | Anti-bacterial activity (MIC), strain MRSA 15-4 ([8]; clinical isolate MRSA 15-4) | Anti-bacterial activity (MIC), strain ECO+ 15-3 ([9]; clinical isolate ECO+ 15-3) | Anti-bacterial activity (MIC), strain ECO+ 15-4 ([9]; clinical isolate ECO+ 15-4) | Anti-bacterial activity (MIC), strain MSSA 15-3 ([10]; clinical isolate MSSA 15-3) | Anti-bacterial activity (MIC), strain MSSA 15-4 ([10]; clinical isolate MSSA 15-4) | Anti-bacterial activity (MIC), strain MSSA 15-6 ([10]; clinical isolate MSSA 15-6)
50%: inhibition at 30 µM [13]
32 µg/mL: Anti-bacterial activity (MIC), strain MSSE 15-6 ([6]; clinical isolate MSSE 15-6)
≥ 30%: inhibition at 30 µM ([1]; Table 5, read-out: Inhibition of proliferation, Colorectal cancer HCT116)
8 µg/mL: Anti-bacterial activity (MIC), strain BCA 14-1 ([2]; clinical isolate BCA 14-1) | Anti-bacterial activity (MIC), strain BCA 14-4 ([2]; clinical isolate BCA 14-4) | Anti-bacterial activity (MIC), strain BCA 14-7 ([2]; clinical isolate BCA 14-7) | Anti-bacterial activity (MIC), strain BCA 14-8 ([2]; clinical isolate BCA 14-8) | Anti-bacterial activity (MIC), strain BCA 14-10 ([2]; clinical isolate BCA 14-10) | Anti-bacterial activity (MIC), strain EFA 15-9 ([3]; clinical isolate EFA 15-9)
35%: inhibition at 30 µM ([1]; read-out: HCT116 inhibition rate/%)
> 32 µg/mL: Anti-bacterial activity (MIC), strain EFA 15-1 ([3]; clinical isolate EFA 15-1) | Anti-bacterial activity (MIC), strain EFA 15-2 ([3]; clinical isolate EFA 15-2) | Anti-bacterial activity (MIC), strain EFA 15-3 ([3]; clinical isolate EFA 15-3) | Anti-bacterial activity (MIC), strain EFA 15-4 ([3]; clinical isolate EFA 15-4) | Anti-bacterial activity (MIC), strain EFA 15-5 ([3]; clinical isolate EFA 15-5) | Anti-bacterial activity (MIC), strain EFA 15-6 ([3]; clinical isolate EFA 15-6) | Anti-bacterial activity (MIC), strain EFM 15-1 ([5]; clinical isolate EFM 15-1) | Anti-bacterial activity (MIC), strain EFM 15-2 ([5]; clinical isolate EFM 15-2) | Anti-bacterial activity (MIC), strain EFM 15-3 ([5]; clinical isolate EFM 15-3) | Anti-bacterial activity (MIC), strain EFM 15-4 ([5]; clinical isolate EFM 15-4) | Anti-bacterial activity (MIC), strain ECO+ 15-1 ([9]; clinical isolate ECO+ 15-1) | Anti-bacterial activity (MIC), strain ECO+ 15-2 ([9]; clinical isolate ECO+ 15-2) | Anti-bacterial activity (MIC), strain ECO− 15-1 ([9]; clinical isolate ECO− 15-1) | Anti-bacterial activity (MIC), strain ECO− 15-2 ([9]; clinical isolate ECO− 15-2) | Anti-bacterial activity (MIC), strain ECO− 15-3 ([9]; clinical isolate ECO− 15-3) | Anti-bacterial activity (MIC), strain ECO− 15-4 ([9]; clinical isolate ECO− 15-4) | Anti-bacterial activity (MIC), strain MSSA 15-5 ([10]; clinical isolate MSSA 15-5)
2 µg/mL: Anti-bacterial activity (MIC), strain SPN 16-2 ([7]; clinical isolate SPN 16-2) | Anti-bacterial activity (MIC), strain SPN 16-4 ([7]; clinical isolate SPN 16-4)
31%: inhibition at 30 µM [12]
10%: inhibition at 30 µM [11]
